Like-named read-outs stand apart in the source and are kept apart here.
What was measured:
SARS-CoV-2 = experiment: microbe, parasite or virus in culture; type: cell-based; details: Severe acute respiratory syndrome coronavirus 2, VeroE6/TMPRSS2, 72 h, 50% SARS-CoV-2 infected cell death inhibitory concentration, VeroE6/TMPRSS2 cells, 3 days culture
SARS-CoV-2 3CL protease = SARS-CoV-2 3CL protease (Severe acute respiratory syndrome coronavirus 2, UniProt P0DTD1); experiment: biochemical; details: 50% SARS-CoV-2 3CL protease inhibitory concentration, read-out: IC50

Row | Structure (SMILES) | EC50 (SARS-CoV-2; CellTiter-Glo 2.0) [nM] | IC50 (SARS-CoV-2 3CL protease; RapidFire MS) [nM] | EC50 (SARS-CoV-2; class symbols) [nM] | IC50 (SARS-CoV-2 3CL protease; given as class symbols) [nM]
1 | Cc1cncc(-n2c(=O)nc(Nc3cc4cn(C)nc4cc3Cl)n(Cc3cc(C#N)c(F)cc3Cl)c2=O)c1 [II-0087] | 69 | 2.5 | – | –
2 | CNc1nc2cc(Cl)c(Nc3nc(=O)n(Cc4ncn(C)n4)c(=O)n3Cc3cc(F)c(F)c(Cl)c3)cc2s1 [II-0235] | – | – | 1000 to 10000 | < 100
3 | COc1ccc(Nc2nc(=O)n(Cc3ccc[nH]c3=O)c(=O)n2Cc2cc(F)c(F)c(F)c2)c(C)c1 [Compound I-0129] | – | – | 1000 to 10000 | < 100
4 | Cc1cncc(-n2c(=O)nc(Nc3ccc4c(c3)CCO4)n(Cc3ccc(F)c(C#N)c3)c2=O)c1 [Compound I-0354] | 107 | 5 | – | –
5 | Cc1nc2cc(Cl)c(Nc3nc(=O)n(Cc4ccc[nH]c4=O)c(=O)n3Cc3cc(F)c(F)c(F)c3)cc2o1 [Compound I-0459] | – | – | 1000 to 10000 | < 100
6 | O=c1[nH]cccc1Cn1c(=O)nc(NC2CCOCC2)n(Cc2cc(F)c(F)c(F)c2)c1=O [Compound I-0132] | – | 2300 | < 1000 | 1000 to 10000
7 | Cc1cncc(-n2c(=O)nc(Nc3cc4cn(C)nc4cc3Cl)n(Cc3cc(F)c(F)c(F)c3)c2=O)c1F [II-0270] | – | – | 1000 to 10000 | < 100
8 | CNc1cncc(-n2c(=O)nc(Nc3cc4cn(C)nc4cc3Cl)n(Cc3cc(C#N)c(F)cc3Cl)c2=O)c1 [II-0598] | – | – | < 1000 | < 100
9 | Cn1cnc(Cn2c(=O)nc(Nc3cc4cn(C)nc4cc3Cl)n(Cc3cc(F)cc(F)c3)c2=O)n1 [II-0207] | – | – | 1000 to 10000 | < 100
10 | Cc1cncc(-n2c(=O)nc(Nc3cc4cn(C)nc4cc3Cl)n(Cc3ccc(F)cc3Br)c2=O)c1 [II-0220] | – | – | 1000 to 10000 | < 100
11 | Cc1cncc(-n2c(=O)nc(Nc3cc4cn(C)nc4cc3Cl)n(Cc3ccc(F)c(C#N)c3)c2=O)c1F [II-0265] | – | – | < 1000 | < 100
12 | Cc1cncc(-n2c(=O)nc(N3CC4CCC3CC4)n(Cc3cc(F)c(F)c(F)c3)c2=O)c1 [II-0369] | 1160 | 630 | – | –
13 | Cn1cnc(Cn2c(=O)nc(Nc3cc4cn(CC(F)F)nc4cc3Cl)n(Cc3cc(F)c(F)c(F)c3)c2=O)n1 [Compound I-0433] | 720 | 10 | < 1000 | < 100
14 | Cc1cncc(-n2c(=O)nc(Nc3ccc4nn(CC(F)(F)F)cc4c3)n(Cc3cc(C#N)ccc3C)c2=O)c1 [II-0299] | 202 | 3.3 | – | –
15 | COc1ccc(Nc2nc(=O)n(-c3cncc(C)c3)c(=O)n2Cc2ccc(F)c(C#N)c2)cc1 [II-0182] | – | – | < 1000 | < 100
16 | O=c1[nH]cccc1Cn1c(=O)nc(Nc2cccc3[nH]ccc23)n(Cc2cc(F)c(F)c(F)c2)c1=O [Compound I-0031] | 4060 | 130 | 1000 to 10000 | 100 to 1000
17 | Cc1cncc(-n2c(=O)nc(Nc3cc4cn(C(F)F)nc4cc3Cl)n(Cc3ccc(F)c(C#N)c3)c2=O)c1 [Compound I-0430] | – | – | < 1000 | < 100
18 | Cn1cnc(Cn2c(=O)nc(Nc3cc4cn(C)nc4cc3Cl)n(Cc3ccc(F)cc3Br)c2=O)n1 [II-0218] | – | – | 1000 to 10000 | < 100
19 | CNC(=O)Cn1cc2cc(Nc3nc(=O)n(-c4cncc5ccccc45)c(=O)n3Cc3cc(F)c(F)cc3F)c(Cl)cc2n1 [II-0556] | – | – | 1000 to 10000 | < 100
20 | C[C@@H](O)Cn1cc2cc(Nc3nc(=O)n(Cc4cc(Cl)c[nH]c4=O)c(=O)n3Cc3cc(F)c(F)c(F)c3)c(Cl)cc2n1 [Compound I-0290] | – | – | 1000 to 10000 | < 100
21 | Cc1cncc(-n2c(=O)nc(Nc3cc4cn(C)nc4cc3Cl)n(Cc3cc(C#N)ccc3CF)c2=O)c1 [II-0334] | 620 | 2.8 | – | –
22 | Cc1cncc(-n2c(=O)nc(Nc3ccc4nn(C)cc4c3)n(Cc3cc(C#N)ccc3Cl)c2=O)c1 [II-0422] | 290 | 6.4 | – | –
23 | Cc1cncc(-n2c(=O)nc(Nc3cc4cn(C)nc4cc3F)n(Cc3cc(C#N)ccc3C)c2=O)c1 [II-0115] | – | – | < 1000 | < 100
24 | COc1ccc(Nc2nc(=O)n(-c3cncc(C)c3)c(=O)n2Cc2ccc(F)c(C#N)c2)c(F)c1 [II-0180] | – | – | < 1000 | < 100
25 | O=c1[nH]cccc1Cn1c(=O)nc(Nc2cc3cn(CC(F)F)nc3cc2Cl)n(Cc2cc(F)c(F)c(F)c2)c1=O [Compound I-0284] | – | – | < 1000 | < 100
26 | CCn1cc2cc(Nc3nc(=O)n(-c4cncc(C)c4)c(=O)n3Cc3ccc(F)c(C#N)c3)c(Cl)cc2n1 [II-0118] | 121 | 4.5 | – | –
27 | CNc1nc2cc(Cl)c(Nc3nc(=O)n(-c4cncc(Cl)c4)c(=O)n3Cc3cc(C#N)ccc3C)cc2o1 [II-0546] | – | – | < 1000 | < 100
28 | Cn1cc2cc(Nc3nc(=O)n(Cc4ccc[nH]c4=O)c(=O)n3Cc3cc(F)cc(Cl)c3)c(Cl)cc2n1 [Compound I-0008] | – | – | 1000 to 10000 | < 100

From patent US12559474B2, “Triazine derivatives having virus replication inhibitory activity and pharmaceutical composition comprising the same” (priority 2021, dated 2026)
